The values below come from patent US20250326748A1, “COMPOUNDS AND METHODS FOR MODULATING SPLICING” (REMIX THERAPEUTICS INC., priority 2022, published 2025).

Like-named read-outs stand apart in the source and are kept apart here. Where only a bound is given, the exact number is not on record here.

One series has as its system K562 cells. Kind of series: Cell viability, Cell Titer Glo 2.0 assay, K562. Conditions: 72 hours.
The subject of a further series is MYB mRNA. The experiment in a line: Splicing RT-qPCR assay, MYB canonical (CJ) and alternative (AJ) junction mRNA. Type of series: cell-based, human. The note with it: Homo sapiens; for IC50: canonical junction mRNA; for AC50: alternative junction mRNA, read-out: MYB AJ (AC50, increase in AJ mRNA). On the procedure:
(§1) Compounds described herein were used to modulate RNA transcript abundance in cells. The expression of a target mRNA was measured by detecting the formation of an exon-exon junction in the canonical transcript (CJ). A compound mediated exon-inclusion event was detected by observing an increase in formation of a new junction with an alternative exon (AJ). Real-time qPCR assays were used to detect these splicing switches and interrogate the potency of various compounds towards different target genes. A high-throughput real time quantitative PCR (RT-qPCR) assay was developed to measure these two isoforms of the mRNA (CJ and AJ) for exemplary genes, such as HTT, SMN2, and MYB, together with a control housekeeping gene, GAPDH or GUSB or PPIA, used for normalization. Briefly, the A673 or K562 cell line was treated with various compounds described herein (e.g., compounds of Formula (D). After treatment, the levels of the HTT, MYB, or SMN2 mRNA targets were determined from each sample of cell lysate by cDNA synthesis followed by qPCR.
(§2) • Cells-to-CT 1-step kit: ThermoFisher A25602, Cells-to-CT lysis reagent: ThermoFisher 4391851C, TaqMan™ Fast Virus 1-Step Master Mix: ThermoFisher 4444436 • GAPDH: VIC-PL, ThermoFisher 4326317E (Assay: Hs99999905_m1)—used for K562/suspension cell lines • GUSB: VIC-PL, ThermoFisher 4326320E (Assay: Hs99999908_m1)—used for K562/suspension cell lines • PPIA: VIC-PL, ThermoFisher 4326316E (Assay: Hs99999904_m1)—used for A673/adherent cell lines
(§3) The A673 cell line was cultured in DMEM with 10% FBS. Cells were diluted with full growth media and plated in a 96-well plate (15,000 cells in 100 ul media per well). The plate was incubated at 37° C. with 5% CO2 for 24 hours to allow cells to adhere. An 11-point 3-fold serial dilution of the compounds was made in DMSO then diluted in media in an intermediate plate. Compounds were transferred from the intermediate plate to the cell plate with the top dose at a final concentration of 10 uM in the well. Final DMSO concentration was kept at or below 0.25%. The cell plate was returned to the incubator at 37° C. with 5% CO2 for an additional 24 hours.
(§4) The K562 cell line was cultured in IMDM with 10% FBS. For K562, cells were diluted with full growth media and plated in either a 96-well plate (50,000 cells in 50 uL media per well) or a 384-well plate (8,000-40,000 cells in 45 uL media per well). An 11-point 3-fold serial dilution of the compounds were made in DMSO then diluted in media in an intermediate plate. Compound was transferred from the intermediate plate to the cell plate with the top dose at a final concentration of 10 uM in the well. Final DMSO concentration was kept at or below 0.25%. Final volume was 100 uL for 96-well plate and 50 uL for 384-well plate. The cell plate was then placed in an incubator at 37° C. with 5% CO2 for 24 hours.
(§5) The cells were then gently washed with 50 uL-100 uL cold PBS before proceeding to addition of lysis buffer. 30 uL-50 μL of room temperature lysis buffer with DNAse I (and optionally RNAsin) was added to each well. Cells were shaken/mixed thoroughly at room temperature for 5-10 minutes for lysis to take place and then 3 uL-5 μL of room temperature stop solution was added and wells were shaken/mixed again. After 2-5 minutes, the cell lysate plate was transferred to ice for RT-qPCR reaction setup. The lysates could also be frozen at −80° C. for later use.
(§6) In some cases, a direct lysis buffer was used. An appropriate volume of 3× lysis buffer (10 mM Tris, 150 mM NaCl, 1.5%-2.5% Igepal and 0.1-1 U/uL RNAsin, pH 7.4) was directly added to either K562 or A673 cells in media and mixed by pipetting 3 times. The plates were then incubated at room temperature with shaking/rocking for 20-50 minutes to allow for lysis to take place. After this time, the cell lysate plate was transferred to ice to set up for the RT-qPCR reactions. The lysates could also be frozen at −80° C. for later use. […]

The next series concerns Target C mRNA. The experiment in a line: Splicing RT-qPCR panel, Target C canonical junction (CJ) mRNA. Type of series: cell-based, human. The note with it: Homo sapiens, read-out: Target C CJ (decrease in CJ mRNA levels, IC50). As for the experimental part:
as §1, §3, §4, §5
In some cases, a direct lysis buffer was used. An appropriate volume of 3× lysis buffer (10 mM Tris, 150 mM NaCl, 1.5%-2.5% Igepal and 0.1-1 U/uL RNAsin, pH 7.4) was directly added to either K562 or A673 cells in media and mixed by pipetting 3 times. The plates were then incubated at room temperature with shaking/rocking for 20-50 minutes to allow for lysis to take place. After this time, the cell lysate plate was transferred to ice to set up for the RT-qPCR reactions. The lysates could also be frozen at −80° C. for later use.
To set up 10 uL RT-qPCR reactions, cell lysates were transferred to 384-well qPCR plates containing the master mix according to the table below. The plates were sealed, gently vortexed, and spun down before the run. The volumes were adjusted accordingly in some instances where the reaction was carried in 20 μL. The table below summarizes the components of the RT-qPCR reactions:
The RT-qPCR reaction was performed using a QuantStudio (ThermoFisher) under the following fast cycling conditions. […]

A further series has as its system HTT mRNA. The experiment in a line: Splicing RT-qPCR assay, HTT canonical (CJ) and alternative (AJ) junction mRNA. Type of series: cell-based, human. The note with it: Homo sapiens; for IC50: canonical junction mRNA; for AC50: alternative junction mRNA, read-out: HTT AJ (AC50, increase in AJ mRNA). As for the experimental part:
as §1, §2, §3, §4, §5, §6

[1] abbreviates: qPCR panel, read-out: MYB CJ (decrease in CJ mRNA levels, IC50).
[2] abbreviates: RT-qPCR, A673 or K562 cells, 24 hours treatment.
Where [3] appears, read: RT-qPCR, A673 or K562 cells, 24 hours treatment, read-out: MYB CJ (IC50, decrease in CJ mRNA).
Where [4] appears, read: 24 h, RT-qPCR, A673 or K562 cells, 24 hours treatment, read-out: HTT CJ (IC50, decrease in CJ mRNA).
The mark [5] stands for this setting: qPCR panel, read-out: HTT CJ (decrease in CJ mRNA levels, IC50).

In the case of `C[C@@H]1CN(c2cnc3nc(-c4cc5cn(C)nc5cc4O)cc(Cl)c3c2)CC2(CC2)N1` [Compound 378], the “Effect on Cell Viability, K562” value in the series on K562 cells is reported as “B (100-1000 nM)”. The concentration for half-maximal inhibition (IC50) in the series on MYB mRNA (setting [1]) was 0.1 to 1 µM; in the series on MYB mRNA (setting [3]) it was 0.1 to 1 µM; in the series on Target C mRNA, more than 10 µM; in the series with HTT mRNA (setting [4]), 1 to 10 µM; in the series with HTT mRNA (setting [5]), 1 to 10 µM. Further, the results for the AC50 in the series with MYB mRNA (setting [2]) and in the series with HTT mRNA (setting [2]) were 0.1 to 1 µM and more than 10 µM, respectively.

Regarding `Cn1cc2cc(-c3cc(Cl)c4cc(N5CCNC6(CC6)C5)cnc4n3)cc(F)c2n1` [Compound 382], the “Effect on Cell Viability, K562” value in the series with K562 cells is “C (1000-9999 nM)”. In addition, the IC50 was 0.1 to 1 µM with MYB mRNA (setting [1]); 0.1 to 1 µM in the series on MYB mRNA (setting [3]); more than 10 µM with Target C mRNA; 1 to 10 µM in the series on HTT mRNA (setting [4]); 1 to 10 µM in the series on HTT mRNA (setting [5]). Besides, the AC50 in the series with MYB mRNA (setting [2]) is 0.1 to 1 µM; in the series with HTT mRNA (setting [2]) it was more than 10 µM.

With `Cc1cn2nc(-c3cc(Cl)c4cc(N5CCNC6(CC6)C5)cnc4n3)cc(C)c2n1` [Compound 383], the “Effect on Cell Viability, K562” value in the series with K562 cells is given as “C (1000-9999 nM)”. The IC50 in the series on MYB mRNA (setting [1]) fell in the range of 0.1 to 1 µM; in the series with MYB mRNA (setting [3]) it was 0.1 to 1 µM; in the series on Target C mRNA, 1 to 10 µM; with HTT mRNA (setting [4]), 1 to 10 µM; in the series on HTT mRNA (setting [5]), 1 to 10 µM. The AC50 in the series on MYB mRNA (setting [2]) was in the range of 0.1 to 1 µM; in the series with HTT mRNA (setting [2]) it was 1 to 10 µM.

Consider `Cc1c(O)c(-c2cc(C#N)c3cc(N4C[C@H](C)N[C@@H](C)C4)cnc3n2)cc2cn(C)nc12` [Compound 384, 6-[(3S,5S)-3,5-dimethylpiperazin-1-yl]-2-(6-hydroxy-2,7-dimethylindazol-5-yl)-1,8-naphthyridine-4-carbonitrile], for which the “Effect on Cell Viability, K562” value with K562 cells was “A (<100 nM)”. In addition, the IC50 in the series on MYB mRNA (setting [1]) is less than 0.1 µM; in the series on MYB mRNA (setting [3]), less than 0.1 µM; in the series on Target C mRNA, 1 to 10 µM; in the series on HTT mRNA (setting [4]) it was 0.1 to 1 µM; in the series with HTT mRNA (setting [5]), 0.1 to 1 µM. Besides, the AC50 with MYB mRNA (setting [2]) was less than 0.1 µM; in the series on HTT mRNA (setting [2]), 0.1 to 1 µM.

For `C[C@H]1CN(c2cnc3nc(-c4cc(F)c5nn(C)cc5c4)ccc3c2Cl)CCN1` [Compound 385, 5-chloro-2-(7-fluoro-2-methylindazol-5-yl)-6-[(3S)-3-methylpiperazin-1-yl]-1,8-naphthyridine], the “Effect on Cell Viability, K562” value in the series on K562 cells was “A (<100 nM)”. For the same compound, the IC50 is less than 0.1 µM in the series with MYB mRNA (setting [1]); less than 0.1 µM in the series on MYB mRNA (setting [3]); 1 to 10 µM in the series on Target C mRNA; more than 10 µM in the series with HTT mRNA (setting [4]); more than 10 µM in the series on HTT mRNA (setting [5]). The AC50 in the series on MYB mRNA (setting [2]) fell in the range of 0.1 to 1 µM; in the series on HTT mRNA (setting [2]), 1 to 10 µM.

`Cn1cc2cc(-c3cc(Cl)c4cc(N5CC[C@@H](N6CCC6)C5)cnc4n3)c(O)cc2n1` [Compound 386]: in the series with K562 cells, the “Effect on Cell Viability, K562” value is “B (100-1000 nM)”. The IC50 was 0.1 to 1 µM with MYB mRNA (setting [1]); 0.1 to 1 µM in the series with MYB mRNA (setting [3]); more than 10 µM in the series on Target C mRNA; 1 to 10 µM in the series on HTT mRNA (setting [4]); 1 to 10 µM in the series with HTT mRNA (setting [5]). Besides, the values for the AC50 with MYB mRNA (setting [2]) and in the series with HTT mRNA (setting [2]) were 0.1 to 1 µM and 1 to 10 µM, respectively.
